By IC50 is commonly meant the concentration needed to halve the response being measured. The EC50 is the concentration needed to bring the measured effect to its halfway point.

The target of one series is HIV-1 integrase (Human immunodeficiency virus type 1 group M subtype B, UniProt P12497). The series is described as follows: HIV-1 integrase inhibition assay in vitro (radiolabeled duplex substrate, U5 end of HIV LTR). Type of series: biochemical. Here is the method: For the purpose of Table 1, the HIV-1 integrase inhibition assay was carried out following a known procedure (Burke, Jr. T. R. et al., J. Med. Chem. 38, 4171-4178 (1995)). A suitable radiolabeled duplex substrate corresponding to the U5 end of the HIV LTR was used.

Series [1] concerns HIV-1 laboratory viral strain NL4.3. As to the kind of experiment: Anti-viral assay in vitro (MTT, infected MT-4 cells). The format is cell-based. To be noted: reduce virus replication in cell culture by 50%, six days. As for the experimental part: (§1) To evaluate the EC50 of our compounds, various drug concentrations are incubated with the infected cell for six days and then the metabolic activity of the cells is monitored by the MTT assay. (See A. J. Japour et al, Antimicrobial Agents and Chemotherapy, 37, 1095-1101, 1993 and R. Pauwels et al. Journal of Virological Methods, 20, 309-321, 1988).
(§2) We use the laboratory viral strain NL4.3 as wild type virus and the cell line used is MT-4 which is a T-cell line highly sensitive to HIV-1. We also use some WT clinical strains. To address the resistance issue we assay the inhibitors with NL4.3 mutants which are designed to be resistant to specific commercially available inhibitors. The following reagents were obtained through the AIDS Research and Reference Reagent Program, division of AIDS, NIAID, NIH: pNL4.3 from Dr. Malcolm Martin; MT-4 cell line from Dr. Douglas Richman. Wild type (WT) clinical strains were obtained from “Laboratoire de santé publique du Québec”.

In a further series the test system is MT-4 cell line. The series is described as follows: Cytotoxicity assay in vitro (MTT, virus omitted). The format is cell-based. Here is the method: as §1, §2
The same MTT assay is used to evaluate the CCIC50 of our compounds except that the virus is omitted.

The mark [2] stands for this setting: IC50, concentration of drug required to reduce the enzyme activity by 50%.
The mark [3] stands for this setting: Human immunodeficiency virus 1, MT4, 144 h.
Setting [4] is: concentration of drug required to reduce the enzyme activity by 50%, read-out: IC50.

Where a name gives a salt, the structure may show the parent alone. Read-outs that look alike come from different tables or passages of the source.

The compound `Cc1nc(N=Nc2cccc(C(=O)NC34CC5CC(CC(C5)C3)C4)c2)c(COP(=O)(O)O)c(C=O)c1O` [Example 4, 6-[3-(N-(1-Adamantyl)carbamoyl)phenylazo]-pyridoxal-5-phosphate Hydrochloride] gave an IC50 against HIV-1 integrase (setting [2]) of 0.4 µM. In series [1] (setting [3]), this compound returned an EC50 of 50 µM. The compound further displayed a CCIC50 in the series on MT-4 cell line (human, 6 days) of 13 µM.

In the case of `Cc1nc(N=Nc2cc(C(=O)O)cc(C(=O)O)c2)c(COP(=O)(O)O)c(C=O)c1O` [Example 50, 6-(3,5-Dicarboxyphenylazo)-pyridoxal-5-phosphate Penta-potassium Salt], the IC50 against HIV-1 integrase (setting [2]) is 0.47 µM. The compound further displayed an EC50 in series [1] of 5 µM. The compound further registered a CCIC50 in the series on MT-4 cell line (human, 6 days) greater than 100 µM.

In turn, `Cc1nc(N=Nc2cccc(S(=O)(=O)NC(C)(C)C)c2)c(COP(=O)(O)O)c(C=O)c1O` [Example 9, 6-[3-(tert-Butylsulfamoyl)phenylazo]-pyridoxal-5-phosphate] gave an IC50 against HIV-1 integrase (setting [2]) of 3 µM. In series [1] (setting [3]), this compound had an EC50 of 15 µM. The compound also came in with a CCIC50 in the series with MT-4 cell line (human, 6 days) of 57 µM.

Regarding `Cc1cc(NS(=O)(=O)c2ccc(N=Nc3nc(C)c(O)c(C=O)c3COP(=O)(O)O)cc2)nc(C)n1` [Example 23], the IC50 at HIV-1 integrase (setting [4]) is 2.75 µM.

As for `Cc1nc(N=Nc2cccc(C(=O)Nc3ccccn3)c2)c(COP(=O)(O)O)c(C=O)c1O` [Example 29, 6-[3-(2-Pyridylcarbamoyl)phenylazo]-pyridoxal-5-phosphate], on HIV-1 integrase (setting [2]), the concentration for half-maximal inhibition (IC50) amounted to 3.85 µM. The same compound returned an EC50 in series [1] (setting [3]) of 24 µM. In the series with MT-4 cell line (human, 6 days), the CCIC50 is greater than 100 µM.

`Cc1ccc(C(=O)O)cc1N=Nc1nc(C)c(O)c(C=O)c1COP(=O)(O)O` [Example 38, 6-(5-Carboxy-2-methylphenylazo)-pyridoxal-5-phosphate] had an IC50 against HIV-1 integrase (setting [2]) of 2.3 µM. Besides, a half-maximal effect in series [1] (setting [3]) (EC50) was put at 50 µM. The compound also returned a CCIC50 with MT-4 cell line (human, 6 days) greater than 100 µM.

In the case of `Cc1nc(N=Nc2ccc(S(=O)(=O)Nc3ccccc3F)cc2)c(COP(=O)(O)O)c(C=O)c1O` [Example 44, 6-[4-(2-Fluorophenylsulfamoyl)phenylazo]pyridoxal-5-phosphate], on HIV-1 integrase (setting [4]), the IC50 was found to be 7.7 µM.

At HIV-1 integrase (setting [2]), `Cc1nc(N=Nc2ccc(S(=O)(=O)N3CCCCC3)cc2)c(COP(=O)(O)O)c(C=O)c1O` [Example 7, 6-[4-(1-Piperidinesulfonyl)phenylazo]-pyridoxal-5-phosphate] had an IC50 of 2.5 µM. In series [1] (setting [3]), the EC50 was found to be 12.5 µM. Also, the CCIC50 in the series on MT-4 cell line (human, 6 days) was greater than 100 µM.

For the compound `Cc1nc(N=Nc2cccc(S(=O)(=O)NCC(C)C)c2)c(COP(=O)(O)O)c(C=O)c1O` [Example 16, 6-[3-(Isobutylsulfamoyl)phenylazo]-pyridoxal-5-phosphate], the IC50 on HIV-1 integrase (setting [4]) is 1.9 µM.

In the case of `Cc1nc(N=Nc2cc(C(=O)O)ccc2Cl)c(COP(=O)(O)O)c(C=O)c1O` [Example 40, 6-(5-Carboxy-2-chlorophenylazo)-pyridoxal-5-phosphate], the IC50 on HIV-1 integrase (setting [4]) amounted to 3.35 µM. For the same compound, the EC50 in series [1] (read-out: EC50) is 17 µM. Further, the CCIC50 with MT-4 cell line (reduce cell survival by 50%, MTT assay, virus omitted) is greater than 100 µM.

Regarding `Cc1nc(N=Nc2cccc(S(=O)(=O)NCCO)c2)c(COP(=O)(O)O)c(C=O)c1O` [Example 21, 6-[3-(2-Hydroxyethylsulfamoyl)phenylazo]-pyridoxal-5-phosphate], the IC50 at HIV-1 integrase (setting [4]) was found to be 2.45 µM.

With `Cc1nc(N=Nc2ccc(S(=O)(=O)NC3CCCCC3)cc2)c(COP(=O)(O)O)c(C=O)c1O` [Example 18, 6-[4-(Cyclohexylsulfamoyl)phenylazo]-pyridoxal-5-phosphate], the IC50 at HIV-1 integrase (setting [4]) is 2.2 µM.

On to `Cc1nc(N=Nc2cccc(S(N)(=O)=O)c2)c(COP(=O)(O)O)c(C=O)c1O` [Example 35, 6-(3-Sulfamoylphenylazo)-pyridoxal-5-phosphate], for which, on HIV-1 integrase (setting [4]), the IC50 stood at 12.8 µM.

With `Cc1nc(N=Nc2ccccc2[N+](=O)[O-])c(COP(=O)(O)O)c(C=O)c1O` [Example 33, 6-(2-Nitrophenylazo)-pyridoxal-5-phosphate], the IC50 at HIV-1 integrase (setting [4]) worked out at 5.25 µM. Also, the EC50 in series [1] (setting [3]) stood at 33 µM.

Regarding `Cc1nc(N=Nc2ccc(C(=O)NC3CCCCC3)cc2)c(COP(=O)(O)O)c(C=O)c1O` [Example 14, 6-[4-(Cyclohexylcarbamoyl)phenylazo]-pyridoxal-5-phosphate], the IC50 on HIV-1 integrase (setting [4]) was 4.36 µM.

On to `Cc1nc(N=Nc2ccc(C(=O)NC(C)(C)C)cc2)c(COP(=O)(O)O)c(C=O)c1O` [Example 11, 6-[4-(tert-Butylcarbamoyl)phenylazo]-pyridoxal-5-phosphate], for which, on HIV-1 integrase (setting [4]), the concentration for half-maximal inhibition (IC50) worked out at 2.73 µM.

On to `Cc1nc(N=Nc2cccc(C(=O)NC3=NCCCN3)c2)c(COP(=O)(O)O)c(C=O)c1O` [Example 36, 6-[3-(2-(1,4,5,6-Tetrahydropyrimidyl)carbamoyl)phenylazo]-pyridoxal-5-phosphate], for which the IC50 on HIV-1 integrase (setting [4]) was 6.2 µM.

For the compound `Cc1nc(N=Nc2ccc(C(N)=O)cc2)c(COP(=O)(O)O)c(C=O)c1O` [Example 43, 6-(4-Carbamoylphenylazo)-pyridoxal-5-phosphate], the IC50 at HIV-1 integrase (setting [4]) came to 8.7 µM.

With `Cc1nc(N=Nc2ccc(S(=O)(=O)Nc3ncccn3)cc2)c(COP(=O)(O)O)c(C=NO)c1O` [Example 53, 6-[4-(2-Pyrimidylsulfamoyl)phenylazo]-pyridoxal-5-phosphate Oxime], the IC50 on HIV-1 integrase (setting [4]) is 2 µM. For the same compound, the EC50 in series [1] (setting [3]) was 15 µM.

Take `Cc1nc(N=Nc2cc(C(=O)O)cc(C(=O)O)c2)c(COP(=O)(O)O)c(C=O)c1O` [Example 22, 6-(3,5-Dicarboxyphenylazo)-pyridoxal-5-phosphate]: the IC50 on HIV-1 integrase (setting [2]) is 0.43 µM. In the series on MT-4 cell line (human, 6 days), the CCIC50 is greater than 100 µM.

`CNS(=O)(=O)c1cccc(N=Nc2nc(C)c(O)c(C=O)c2COP(=O)(O)O)c1` [Example 26, 6-[3-(Methylsulfamoyl)phenylazo]-pyridoxal-5-phosphate]: at HIV-1 integrase (setting [4]), the IC50 was found to be 3.7 µM.

With `Cc1nc(/N=N/c2cccc(C(=O)N3CCCCC3)c2)c(COP(=O)(O)O)c(C=O)c1O` [Example 8, 6-[3-(1-Piperidinecarbonyl)phenylazo]-pyridoxal-5-phosphate], the IC50 on HIV-1 integrase (setting [4]) amounted to 2.8 µM.

On to `Cc1nc(N=Nc2ccc(S(=O)(=O)NCC(C)C)cc2)c(COP(=O)(O)O)c(C=O)c1O` [Example 17, 6-[4-(Isobutylsulfamoyl)phenylazo]pyridoxal-5-phosphate], for which the IC50 on HIV-1 integrase (setting [4]) turned out to be 2.45 µM.

For the compound `Cc1nc(N=Nc2ccc(S(=O)(=O)Nc3cccc(F)c3)cc2)c(COP(=O)(O)O)c(C=O)c1O` [Example 45, 6-[4-(3-Fluorophenylsulfamoyl)phenylazo]-pyridoxal-5-phosphate], on HIV-1 integrase (setting [4]), the IC50 stood at 10.5 µM.

With `CNS(=O)(=O)c1ccc(N=Nc2nc(C)c(O)c(C=O)c2COP(=O)(O)O)cc1` [Example 20, 6-[4-(Methylsulfamoyl)phenylazo]-pyridoxal-5-phosphate], the IC50 on HIV-1 integrase (setting [4]) turned out to be 1.2 µM.

`Cc1nc(N=Nc2ccc(S(=O)(=O)N3CCCC3)cc2)c(COP(=O)(O)O)c(C=O)c1O` [Example 15, 6-[4-(1-Pyrrolinesulfonyl)phenylazo]-pyridoxal-5-phosphate]: the IC50 at HIV-1 integrase (setting [4]) is 1.7 µM.

For `Cc1nc(N=Nc2ccc(S(=O)(=O)Nc3ccc(F)cc3)cc2)c(COP(=O)(O)O)c(C=O)c1O` [Example 46, 6-[4-(4-Fluorophenylsulfamoyl)phenylazo]-pyridoxal-5-phosphate], the IC50 at HIV-1 integrase (setting [2]) turned out to be 1.5 µM. Moreover, the CCIC50 in the series with MT-4 cell line (human, 6 days) is 32 µM.

On to `Cc1nc(N=Nc2ccc(C#N)cc2)c(COP(=O)(O)O)c(C=O)c1O` [Example 42, 6-(4-Cyanophenylazo)-pyridoxal-5-phosphate], for which, on HIV-1 integrase (setting [2]), the half-maximal inhibitory concentration (IC50) came out at 11.3 µM. The compound also gave a CCIC50 in the series with MT-4 cell line (human, 6 days) greater than 100 µM.

For the compound `Cc1nc(N=Nc2cccc(Cl)c2)c(COP(=O)(O)O)c(C=O)c1O` [Example 34, 6-(3-Chlorophenylazo)-pyridoxal-5-phosphate], the concentration for half-maximal inhibition (IC50) at HIV-1 integrase (setting [4]) is 2.6 µM. The same compound registered an EC50 in series [1] (setting [3]) of 45 µM.

On to `Cc1nc(N=Nc2ccc(S(=O)(=O)NC(C)(C)C)cc2)c(COP(=O)(O)O)c(C=O)c1O` [Example 10, 6-[4-(tert-Butylsulfamoyl)phenylazo]-pyridoxal-5-phosphate], for which, on HIV-1 integrase (setting [4]), the IC50 was 4.25 µM.

For the compound `CCCCNS(=O)(=O)c1cccc(N=Nc2nc(C)c(O)c(C=O)c2COP(=O)(O)O)c1` [Example 19, 6-[3-(Butylsulfamoyl)phenylazo]-pyridoxal-5-phosphate], the IC50 at HIV-1 integrase (setting [4]) was 2 µM.

With `Cc1nc(N=Nc2ccc(S(=O)(=O)Nc3ccon3)cc2)c(COP(=O)(O)O)c(C=O)c1O` [Example 32, 6-[4-(3-Isoazolylsulfamoyl)phenylazo]-pyridoxal-5-phosphate], at HIV-1 integrase (setting [4]), the IC50 was 3 µM. Also, the EC50 in series [1] (setting [3]) worked out at 50 µM.

As to `Cc1nc(N=Nc2cccc(S(=O)(=O)N3CCCCC3)c2)c(COP(=O)(O)O)c(C=O)c1O` [Example 6, 6-[3-(1-Piperidinesulfonyl)phenylazo]-pyridoxal-5-phosphate], on HIV-1 integrase (setting [4]), the IC50 worked out at 4.37 µM.

Consider `Cc1nc(N=Nc2cccc(S(=O)(=O)N3CCCC3)c2)c(COP(=O)(O)O)c(C=O)c1O` [Example 12, 6-[3-(1-Pyrrolinesulfonyl)phenylazo]-pyridoxal-5-phosphate], for which the IC50 at HIV-1 integrase (setting [4]) worked out at 2.9 µM.
